Measurements reported in PubChem BioAssay AID330 (DTP/NCI, 2004).
“And” between values parts separate entries of the source, which are not always exact repeats. Equal values may be shown once. Toxic doses and inconclusive results are not listed. The calls were made as follows: active = survival T/C of 150% or more; inactive = T/C below 125% in these data.

System: P388 leukemia ip, CD2F1 mice, survival T/C
Test: NCI In Vivo Anticancer Drug Screen. Data for tumor model P388 Leukemia (intraperitoneal) in CD2F1 (CDF1) mice
Conditions: endpoint: median survival time, higher = longer survival
Method in brief: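 Mice carrying the transplanted tumor received test compound or vehicle. Survival was recorded in each group, and the value is the treated-group measurement divided by that of the vehicle-treated control group.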

[1] = dose: 60.0 mg/kg/injection, schedule: Q01DX005 (ip), vehicle: saline with Tween-80
[2] = dose: 120.0 mg/kg/injection, schedule: Q01DX005 (ip), vehicle: saline with Tween-80
[3] = dose: 240.0 mg/kg/injection, schedule: Q01DX005 (ip), vehicle: saline with Tween-80
[4] = dose: 50.0 mg/kg/injection, schedule: Q01DX009 (ip), vehicle: saline with Tween-80
[5] = dose: 100.0 mg/kg/injection, schedule: Q01DX009 (ip), vehicle: saline with Tween-80
[6] = dose: 200.0 mg/kg/injection, schedule: Q01DX009 (ip), vehicle: saline with Tween-80
[7] = dose: 100.0 mg/kg/injection, schedule: Q04DX003 (ip), vehicle: saline with Tween-80
[8] = dose: 200.0 mg/kg/injection, schedule: Q04DX003 (ip), vehicle: saline with Tween-80
[9] = dose: 400.0 mg/kg/injection, schedule: Q04DX003 (ip), vehicle: saline with Tween-80
[10] = dose: 50.0 mg/kg/injection, schedule: Q01DX009 (ip), vehicle: saline

Measured: T/C

N[C@H](CCOc1ccc(/C(=N/O)C(=O)N[C@H]2CN([C@@H](C(=O)O)c3ccc(O)cc3)C2=O)cc1)C(=O)O
inactive: dose: 50.0 mg/kg/injection, schedule: Q01DX005 (ip), vehicle: water 101 % of control | dose: 100.0 mg/kg/injection, schedule: Q01DX005 (ip), vehicle: water 97 % of control | dose: 200.0 mg/kg/injection, schedule: Q01DX005 (ip), vehicle: water 105 % of control

CN(C)c1ccc2nc3c(cc(Nc4cccc5cccc(Nc6cc7ccccc7c7nc8ccc(N(C)C)cc8[o+]c67)c45)c4ccccc43)[o+]c2c1
inactive: [1] 90 % of control | [2] 100 % of control | [3] 91 % of control

COc1ccc(C2=NN(C(C)=O)C(c3cc(OC)c(OC)cc3N)S2)cc1OC (centres undefined) (tested in a mixture with another compound)
inactive: dose: 7.5 mg/kg/injection, schedule: Q01DX005 (ip), vehicle: saline with Tween-80 97 % of control | dose: 15.0 mg/kg/injection, schedule: Q01DX005 (ip), vehicle: saline with Tween-80 92 % of control | dose: 30.0 mg/kg/injection, schedule: Q01DX005 (ip), vehicle: saline with Tween-80 90 % of control

COc1cc(O)c2c(=O)c3c(O)c(OC4OC(COC5OC(C)C(O)C(O)C5O)C(O)C(O)C4O)ccc3oc2c1 (centres undefined)
inactive: dose: 1.5 mg/kg/injection, schedule: Q01DX009 (ip), vehicle: saline 107 % of control | dose: 3.0 mg/kg/injection, schedule: Q01DX009 (ip), vehicle: saline 103 % of control | dose: 6.0 mg/kg/injection, schedule: Q01DX009 (ip), vehicle: saline 100 % of control | dose: 12.0 mg/kg/injection, schedule: Q01DX009 (ip), vehicle: saline 99 % of control

Cc1ccc(C)c(NC(=O)C(=O)C(C#N)c2c(Cl)cccc2Cl)c1 (centres undefined)
inactive: [1] 96 % of control | [2] 102 % of control | [3] 99 % of control

O=C(O)CC(NC(=O)OCc1ccccc1)C(=O)OCc1ccccc1 (centres undefined)
inactive: [4] 100 % of control | [5] 104 % of control | [6] 104 % of control

COc1ccc2c(c1)Sc1c(Cl)c3c(c(Cl)c1=N2)Sc1cc(OC)ccc1N=3
inactive: dose: 100.0 mg/kg/injection, schedule: Q04DX002 (ip), vehicle: saline with Tween-80 102 % of control | dose: 200.0 mg/kg/injection, schedule: Q04DX002 (ip), vehicle: saline with Tween-80 112 % of control | dose: 400.0 mg/kg/injection, schedule: Q04DX002 (ip), vehicle: saline with Tween-80 118 % of control

O=C1CN(N2CCOCC2)CC(=O)N2CCCCN12
inactive: dose: 50.0 mg/kg/injection, schedule: Q01DX005 (ip), vehicle: saline 100 % of control | dose: 100.0 mg/kg/injection, schedule: Q01DX005 (ip), vehicle: saline 109 % of control | dose: 200.0 mg/kg/injection, schedule: Q01DX005 (ip), vehicle: saline 109 % of control

CP1(=O)CCC2=C1CCCC2 (centres undefined)
inactive: [7] 105 % of control | [8] 107 % of control | [9] 104 % of control

CCCCCCCCOC(=O)NCCCCC(N)C(=O)O (centres undefined)
inactive: [10] 87 % of control | dose: 100.0 mg/kg/injection, schedule: Q01DX009 (ip), vehicle: saline 101 % of control | dose: 200.0 mg/kg/injection, schedule: Q01DX009 (ip), vehicle: saline 103 % of control

CC(C)(C)N=C(CCSc1ccccc1)Nc1ccccc1Cl
inactive: [4] 108 % of control | [5] 109 % of control | [6] 113 % of control

O=C1c2ccccc2C(=O)c2c1ccc1c2OCO1
inactive: dose: 5.0 mg/kg/injection, schedule: Q01DX005 (ip), vehicle: Klucel (hydroxypropylcellulose) (HPC) 96 % of control | dose: 10.0 mg/kg/injection, schedule: Q01DX005 (ip), vehicle: Klucel (hydroxypropylcellulose) (HPC) 87 % of control | dose: 20.0 mg/kg/injection, schedule: Q01DX005 (ip), vehicle: Klucel (hydroxypropylcellulose) (HPC) 86 % of control and 88 % of control | dose: 40.0 mg/kg/injection, schedule: Q01DX005 (ip), vehicle: Klucel (hydroxypropylcellulose) (HPC) 95 % of control

C[n+]1ccccc1C#N
inactive: dose: 12.5 mg/kg/injection, schedule: Q01DX009 (ip), vehicle: saline 109 % of control | dose: 25.0 mg/kg/injection, schedule: Q01DX009 (ip), vehicle: saline 104 % of control | [10] 104 % of control

CC(=O)OCC1OC(OC(C)=O)C(NC(=O)CNC(=O)OCc2ccccc2)C(OC(C)=O)C1OC(C)=O (centres undefined)
inactive: dose: 12.5 mg/kg/injection, schedule: Q01DX009 (ip), vehicle: other 107 % of control | dose: 25.0 mg/kg/injection, schedule: Q01DX009 (ip), vehicle: other 100 % of control | dose: 50.0 mg/kg/injection, schedule: Q01DX009 (ip), vehicle: other 91 % of control | dose: 100.0 mg/kg/injection, schedule: Q01DX009 (ip), vehicle: other 89 % of control | dose: 200.0 mg/kg/injection, schedule: Q01DX009 (ip), vehicle: other 98 % of control

O=[N+]([O-])c1ccc(SCN2CCCCC2)cc1
inactive: [4] 104 % of control | [5] 104 % of control | [6] 118 % of control

c1ccc2cc3c(ccc4ccccc43)cc2c1
inactive: dose: 25.0 mg/kg/injection, schedule: Q04DX003 (ip), vehicle: other 99 % of control | [4] 100 % of control | dose: 50.0 mg/kg/injection, schedule: Q04DX003 (ip), vehicle: other 104 % of control | [5] 97 % of control | dose: 100.0 mg/kg/injection, schedule: Q04DX003 (ip), vehicle: other 99 % of control | [6] 103 % of control | dose: 200.0 mg/kg/injection, schedule: Q04DX003 (ip), vehicle: other 96 % of control | dose: 400.0 mg/kg/injection, schedule: Q04DX003 (ip), vehicle: other 96 % of control

O=C(O)C(Cc1ccccc1)N=Cc1ccc(O)cc1 (centres undefined)
inactive: [7] 102 % of control | [8] 106 % of control | [9] 97 % of control

O=C1C(c2nc3ccccc3[nH]2)=C(O)c2ccccc21
inactive: dose: 60.0 mg/kg/injection, schedule: Q01DX005 (ip), vehicle: Klucel (hydroxypropylcellulose) (HPC) 87 % of control | dose: 120.0 mg/kg/injection, schedule: Q01DX005 (ip), vehicle: Klucel (hydroxypropylcellulose) (HPC) 87 % of control | dose: 240.0 mg/kg/injection, schedule: Q01DX005 (ip), vehicle: Klucel (hydroxypropylcellulose) (HPC) 87 % of control

CCCCNC(=O)CCC
inactive: [4] 88 % of control | [5] 94 % of control | [6] 95 % of control | dose: 400.0 mg/kg/injection, schedule: Q01DX009 (ip), vehicle: saline with Tween-80 97 % of control

CCCNc1nc(C)nc2[nH]cc(C)c12
inactive: dose: 50.0 mg/kg/injection, schedule: Q01DX005 (ip), vehicle: Klucel (hydroxypropylcellulose) (HPC) 100 % of control | dose: 100.0 mg/kg/injection, schedule: Q01DX005 (ip), vehicle: Klucel (hydroxypropylcellulose) (HPC) 102 % of control

CC(=O)OC(C)(C)/C=C/C(=O)[C@](C)(O)[C@H]1[C@H](O)C[C@@]2(C)[C@@H]3CC=C4[C@@H](CC[C@H](O)C4(C)C)[C@]3(CO)C(=O)C[C@]12C
inactive: dose: 0.6 mg/kg/injection, schedule: Q01DX009 (ip), vehicle: saline sonified 100 % of control | dose: 1.2 mg/kg/injection, schedule: Q01DX009 (ip), vehicle: saline sonified 100 % of control | dose: 2.4 mg/kg/injection, schedule: Q01DX009 (ip), vehicle: saline sonified 116 % of control

Cc1cccc(N2CCN(C(=O)/C(=C/c3ccccc3)NC(=O)c3ccccc3)CC2)c1
inactive: dose: 50.0 mg/kg/injection, schedule: Q01DX005 (ip), vehicle: saline with Tween-80 93 % of control | dose: 100.0 mg/kg/injection, schedule: Q01DX005 (ip), vehicle: saline with Tween-80 89 % of control
